Test systems include SF-539 CNS; NCI-H522 lung; SNB-19 CNS; OVCAR-5 ovarian; M14 melanoma; SF-295 CNS; TK-10 renal; KM12 colon; SK-MEL-5 melanoma; A549 NSCLC.
Assay in all cases: inhibition of tumour cell growth, NCI panel, 48 h

“And” between values parts separate entries of the source, which are not always exact repeats. Identical values can stand only once.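 Cells were grown in 96-well plates and exposed to each compound for 48 hours at five concentrations; endpoints were interpolated linearly between bracketing concentrations, or set to the highest concentration if not reached. The concentration for 50% growth inhibition is given as GI50. The concentration for full growth arrest is given as TGI.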

Take `Cn1nc(N)c2cc([C@@H]3Nc4ccc5[nH]ncc5c4[C@H]4C5CCC(C5)[C@@H]34)ccc21` (stereo partly specified): the GI50 in the assay with SF-539 CNS was 0.333 µM; in the assay with NCI-H522 lung, 0.474 µM; with SNB-19 CNS it was 2.34 µM; with OVCAR-5 ovarian it was 1.48 µM; with M14 melanoma, 0.372 µM; in the assay on SF-295 CNS, 0.32 µM. Besides, the GI50 with TK-10 renal was 19.6 µM; with KM12 colon it was 0.486 µM; in the assay with SK-MEL-5 melanoma it was 0.363 µM; with A549 NSCLC, 0.699 µM. In addition, the TGI in the assay on SF-539 CNS was 5.09 µM; in the assay on NCI-H522 lung it was 24 µM; with SNB-19 CNS it was 34.8 µM; in the assay on OVCAR-5 ovarian it was 23.4 µM; in the assay on M14 melanoma it was 9.98 µM; in the assay with SF-295 CNS it was 11.7 µM. Also, the TGI was > 100 µM in the assay with TK-10 renal, 15.2 µM with KM12 colon, 12.7 µM with SK-MEL-5 melanoma and > 100 µM with A549 NSCLC.

For the compound `CCC(C)n1ncn(-c2ccc(N3CCN(c4ccc(OCC5COC(Cn6cncn6)(c6ccc(Cl)cc6Cl)O5)cc4)CC3)cc2)c1=O` (stereo unspecified), the GI50 in the assay with SF-539 CNS is 7.73 µM; in the assay on NCI-H522 lung, 15.4 µM; in the assay on SNB-19 CNS it was 38.9 µM; in the assay on OVCAR-5 ovarian it was 56.3 µM; in the assay on M14 melanoma, 5.91 µM; in the assay on SF-295 CNS, 1.4 µM. In addition, the GI50 in the assay on TK-10 renal was 28.6 µM; in the assay on KM12 colon, 5.69 µM; in the assay on SK-MEL-5 melanoma it was 2.75 µM; in the assay on A549 NSCLC, 35.8 µM. Also, the TGI in the assay with SF-539 CNS is > 100 µM; in the assay with NCI-H522 lung, 60.8 µM; with SNB-19 CNS, > 100 µM; in the assay with OVCAR-5 ovarian, > 100 µM; in the assay with M14 melanoma, > 100 µM; in the assay on SF-295 CNS, > 100 µM. Moreover, the TGI in the assay on TK-10 renal, with KM12 colon, in the assay with SK-MEL-5 melanoma and in the assay on A549 NSCLC was > 100 µM throughout.

On to `CC(=O)c1cccc(NC(=O)C(=O)NNc2n[nH]c(=S)n2N)c1`, for which the TGI with SF-539 CNS is 18.6 µM; with NCI-H522 lung, 21 µM; with SNB-19 CNS, 21.2 µM; in the assay with OVCAR-5 ovarian, 33.1 µM; with M14 melanoma, 6.15 µM; in the assay with SF-295 CNS, 16.9 µM. Moreover, the TGI in the assay on TK-10 renal was 69.9 µM; in the assay on KM12 colon, 30.9 µM; in the assay with SK-MEL-5 melanoma, 2.6 µM; in the assay with A549 NSCLC, 14.5 µM.

As for `CNC(=O)N(C)N=NCCCl`, the TGI in the assay with SF-539 CNS, in the assay on NCI-H522 lung, in the assay on SNB-19 CNS, with OVCAR-5 ovarian, in the assay on M14 melanoma and in the assay with SF-295 CNS was > 100 µM each time. The TGI with TK-10 renal, with KM12 colon, in the assay with SK-MEL-5 melanoma and with A549 NSCLC was > 100 µM each time.

As for `O/N=C/C1C(OCc2ccccc2)C(OCc2ccccc2)C(OCc2ccccc2)CN1Cc1ccccc1` (stereo unspecified), the TGI in the assay on SF-539 CNS is > 100 µM; with NCI-H522 lung it was > 100 µM; with SNB-19 CNS, > 100 µM; with OVCAR-5 ovarian, 57.3 µM and > 100 µM; in the assay with M14 melanoma, 40.3 µM and > 100 µM; in the assay on SF-295 CNS, 29.5 µM and > 100 µM. Further, the TGI in the assay with TK-10 renal is 58.8 µM and > 100 µM; with KM12 colon, 47.2 µM and 19.6 µM; with SK-MEL-5 melanoma it was 23.9 µM; in the assay with A549 NSCLC, 25 µM and > 100 µM. Further, the GI50 in the assay on OVCAR-5 ovarian was 20 µM and 9.34 µM; in the assay with M14 melanoma, 11.7 µM and 5.68 µM; in the assay on TK-10 renal, 22 µM and 3.08 µM; with KM12 colon, 14.4 µM and 2.86 µM.

Take `Cc1ccc(C)c(C2=C(c3cn(C)c4ccccc34)C(=O)NC2=O)c1`: the GI50 in the assay with SF-539 CNS is > 16.4 µM; in the assay with NCI-H522 lung, > 25 µM; in the assay on SNB-19 CNS, > 25 µM; with OVCAR-5 ovarian it was > 25 µM; in the assay with M14 melanoma, > 25 µM; in the assay on SF-295 CNS, 4.4 µM. For the same compound, the GI50 is > 25 µM with TK-10 renal, 12.6 µM in the assay with KM12 colon, > 25 µM in the assay on SK-MEL-5 melanoma and 18.9 µM in the assay on A549 NSCLC. The TGI in the assay with SF-539 CNS was > 25 µM; with NCI-H522 lung, > 25 µM; in the assay with SNB-19 CNS it was > 25 µM; with OVCAR-5 ovarian, > 25 µM; with M14 melanoma, > 25 µM; in the assay on SF-295 CNS, > 19.4 µM. The TGI in the assay with TK-10 renal, with KM12 colon, with SK-MEL-5 melanoma and in the assay on A549 NSCLC was > 25 µM throughout.

As for `C=C(c1nc2ccc(Cl)cc2[nH]c1=O)C(O)c1ccc(C(O)C(=O)c2nc3ccc(Cl)cc3[nH]c2=O)cc1` (stereo unspecified), the TGI in the assay on SF-539 CNS, with NCI-H522 lung, in the assay with SNB-19 CNS, with OVCAR-5 ovarian, with M14 melanoma and in the assay with SF-295 CNS was > 100 µM throughout. The TGI in the assay on TK-10 renal, in the assay on KM12 colon, in the assay on SK-MEL-5 melanoma and with A549 NSCLC was > 100 µM each time.

`C=C(CNCc1ccccc1)c1ccc(C(=O)Nc2ccccc2N)cc1`: the GI50 is 7.63 µM in the assay on SF-539 CNS; 1.78 µM with NCI-H522 lung; 16.4 µM with SNB-19 CNS; 14.4 µM in the assay with OVCAR-5 ovarian; 29.8 µM with M14 melanoma; 7.28 µM with SF-295 CNS. Also, the GI50 with TK-10 renal is 4.68 µM; in the assay on KM12 colon, 4.05 µM; in the assay on SK-MEL-5 melanoma, 4.66 µM; in the assay on A549 NSCLC it was 7.34 µM. Also, the TGI with SF-539 CNS was 55.2 µM; with NCI-H522 lung it was 6.01 µM; in the assay with SNB-19 CNS, 78.5 µM; in the assay on OVCAR-5 ovarian, 40.1 µM; with M14 melanoma, > 100 µM; in the assay on SF-295 CNS it was 37 µM. Also, the TGI was 21.7 µM in the assay on TK-10 renal, 21.3 µM with KM12 colon, 17.4 µM in the assay with SK-MEL-5 melanoma and > 100 µM with A549 NSCLC.

Turning to `OC[C@H]1C[C@](O)(c2ccc(Cl)cc2)[C@@H](c2ccc(Cl)cc2)O1`, the GI50 was 23.3 µM in the assay with SF-539 CNS; 26 µM in the assay with NCI-H522 lung; 37.8 µM with SNB-19 CNS; 25.9 µM in the assay on OVCAR-5 ovarian; 30.1 µM in the assay with SF-295 CNS; 30.5 µM in the assay on TK-10 renal. Further, the results for the GI50 in the assay on KM12 colon, in the assay with SK-MEL-5 melanoma and with A549 NSCLC were 20.6 µM, 15.3 µM and 29.6 µM, respectively. Further, the TGI is 53.8 µM in the assay on SF-539 CNS; 52.9 µM in the assay with NCI-H522 lung; > 100 µM in the assay on SNB-19 CNS; 71.7 µM in the assay with OVCAR-5 ovarian; 84.8 µM in the assay with SF-295 CNS; 84.3 µM with TK-10 renal. The TGI in the assay on KM12 colon turned out to be 51 µM; with SK-MEL-5 melanoma, 29.3 µM; with A549 NSCLC it was 78.7 µM.

`O=C(/C=C/c1ccccc1O)c1ccccc1O`: the TGI in the assay with SF-539 CNS, in the assay on NCI-H522 lung, in the assay with SNB-19 CNS, with OVCAR-5 ovarian, in the assay with SF-295 CNS and in the assay with TK-10 renal was > 100 µM in each case. The TGI in the assay with KM12 colon, in the assay on SK-MEL-5 melanoma and in the assay with A549 NSCLC was > 100 µM each time.

The values are drawn from PubChem BioAssay (NCI).
